# Patent US9139581B2 (PORTOLA PHARMACEUTICALS, INC., priority 2008, dated 2015)
# Like-named read-outs stand apart in the source and are kept apart here.
# Experiments:
# [1] = test system: human platelet-rich plasma (PRP); experiment: Inhibition of Convulxin-mediated platelet aggregation in vitro (PRP); format: cell-based; details: Table 4, Convulxin-induced aggregation in human PRP, unit inferred
# Protocol: The ability for candidate molecules to inhibit syk-mediated platelet functions are tested by measuring the inhibition the GPVI-specific agonist Convulxin-induced human platelet calcium-mobilization or aggregation. Calcium-mobilization is assessed in human washed platelets in a 96-well microtiter format.
# Inhibition of Convulxin-Mediated Platelet Aggregation In Vitro
# Platelet-rich plasma (PRP) is prepared by centrifugation of whole blood at 160×g for 20 minutes at room temperature. The PRP layer is removed, transferred to a new tube, and the platelet count is adjusted, if advantageous, to achieve a platelet concentration of ˜3×10^8 platelets/ml using platelet-poor plasma (PPP). PPP is prepared by centrifugation of the remaining blood sample (after removal of PRP) for 20 minutes at 800×g. This preparation of PRP can subsequently be used for aggregation assays in either a 96-well plate or standard cuvette aggregometry.
# Inhibition of Convulxin-induced aggregation is determined in 96-well flat-bottom microtiter plates using a microtiter plate shaker and plate reader similar to the procedure described by Frantantoni et al., Am. J. Clin. Pathol. […] All steps are performed at room temperature. For 96-well plate aggregation using platelet-rich plasma (PRP), the total reaction volume of 0.2 ml/well includes 190 μl of PRP (˜3×10^8 platelets/ml, see above), and 5 μl of either serial dilution of test compounds in 30% DMSO or buffer (for control wells). After 20 minutes preincubation at room temperature 5 μl of 320 ng/ml Convulxin agonist solution is added to each well to give a final concentration of 8 ng/ml Convulxin. The plates are then agitated for 5 min on a microtiter plate shaker and the 5 minute reading is obtained in the microtitre plate reader (Softmax, Molecular Devices, Menlo Park, Calif.). Aggregation is calculated from the decrease of OD at 650 nm at t=5 minutes. IC50s were derived by non-linear regression analysis.
# Inhibition of Convulxin-induced aggregation was also determined for cuvette light transmittance aggregation assays, serial dilutions (1:2) of test compounds were prepared in 30% DMSO in a 96 well V-bottom plate (final DMSO concentration in the cuvette was 0.3%). […] IC50s were derived by non-linear regression analysis.
# [2] = biological target: T1, full length active recombinant SYK enzyme (Homo sapiens, UniProt P43405); experiment: Inhibition of Syk tyrosine phosphorylation activity (LANCE TR-FRET); format: biochemical; details: 1 nM SYK, 100 μM ATP
# T1 construct: full length active recombinant SYK enzyme (Millipore, Calif.); purchased Millipore
# In short: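 The reaction is quenched with buffer holding Eu-anti-phosphotyrosine and streptavidin-APC, and detection runs 1 hr at room temperature. TR-FRET is read and IC50s come from non-linear regression.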
# [3] = Table 3, read-out: Syk IC50 code
"IC50 [2, 3] [nM]",SMILES,IC50 [1] [nM],"IC50 ([2]; Table 4, read-out: syk IC50) [nM]"
–,"CC(=O)N1CCN(c2ccc(Nc3ncc(F)c(N4CCC(CN)CC4)n3)cc2)CC1 [Example 18, 1-(4-(4-(4-(4-(aminomethyl)piperidin-1-yl)-5-fluoropyrimidin-2-ylamino)phenyl)piperazin-1-yl)ethanone]",195,10 to 100
–,"NCC1CCN(c2nc(Nc3ccc4cn[nH]c4c3)ncc2F)CC1 [Example 16, N-(4-(4-(aminomethyl)piperidin-1-yl)-5-fluoropyrimidin-2-yl)-1H-indazol-6-amine]",296,10 to 100
–,"NC(=O)C1CCCN(c2nc(Nc3ccc(N4CCNCC4)cc3)nc3[nH]ccc23)C1 (stereo not shown) [Example 8, 1-(2-(4-(piperazin-1-yl)phenylamino)-7H-pyrrolo[2,3-d]pyrimidin-4-yl)piperidine-3-carboxamide]",25300,100 to 1000
–,"CC(=O)N1CCN(c2ccc(Nc3nc(N4CCC[C@H](N)C4)c4cc[nH]c4n3)cc2)CC1 [(S)-1-(4-(4-(4-(3-aminopiperidin-1-yl)-7H-pyrrolo[2,3-d]pyrimidin-2-ylamino)phenyl)piperazin-1-yl)ethanone]",13800,100 to 1000
–,"NCC1CCN(c2nc(Nc3ccc(N4CCNCC4)cc3)nc3[nH]ccc23)CC1 [Example 10, 4-(4-(aminomethyl)piperidin-1-yl)-N-(4-(piperazin-1-yl)phenyl)-7H-pyrrolo[2,3-d]pyrimidin-2-amine]",33200,1 to 10
–,"CC(=O)N1CCN(c2ccc(Nc3nc(N4CCCC(C(N)=O)C4)c4cc[nH]c4n3)cc2)CC1 (stereo not shown) [Example 9, 1-(2-(4-(4-acetylpiperazin-1-yl)phenylamino)-7H-pyrrolo[2,3-d]pyrimidin-4-yl)piperidine-3-carboxamide]",12300,100 to 1000
–,"NCC1CCN(c2nc(Nc3ccc4c(c3)CCC(=O)N4)ncc2F)CC1 [Example 33, 6-(4-(4-(aminomethyl)piperidin-1-yl)-5-fluoropyrimidin-2-ylamino)-3,4-dihydroquinolin-2(1H)-one]",336,10 to 100
–,"CC(=O)N1CCN(c2ccc(Nc3nc(N4CCC(CN)CC4)c4cc[nH]c4n3)cc2)CC1 [Example 11, 1-(4-(4-(4-(4-(aminomethyl)piperidin-1-yl)-7H-pyrrolo[2,3-d]pyrimidin-2-ylamino)phenyl)piperazin-1-yl)ethanone]",5280,1 to 10
–,"NCC1CCN(c2nc(Nc3ccc(C(N)=O)cc3)ncc2F)CC1 [Example 31, 4-(4-(4-(aminomethyl)piperidin-1-yl)-5-fluoropyrimidin-2-ylamino)benzamide]",346,10 to 100
> 1000,"CC(=O)N1CCN(c2ccc(Nc3ncc(F)c(N4CCC(N)CC4)n3)cc2)CC1 [Example 128, 1-(4-(4-(4-(4-aminopiperidin-1-yl)-5-fluoropyrimidin-2-ylamino)phenyl)piperazin-1-yl)ethanone]",–,–
100 to 1000,"C[C@@H](CO)Nc1nc(Nc2ccc(N3CCNCC3)cc2)nc2[nH]ccc12 [Example 99B, (S)-2-(2-(4-(piperazin-1-yl)phenylamino)-7H-pyrrolo[2,3-d]pyrimidin-4-ylamino)propan-1-ol]",–,–
10 to 100,"NCC1CCN(c2nc(Nc3ccc(C(=O)O)cc3)ncc2F)CC1 [Example 131, 4-(4-(4-(aminomethyl)piperidin-1-yl)-5-fluoropyrimidin-2-ylamino)benzoic acid]",–,–
10 to 100,"NC(=O)CNS(=O)(=O)c1ccc(Nc2nc(NC3CCC3)c3cc[nH]c3n2)cc1 [Example 54, 2-(4-(4-(cyclobutylamino)-7H-pyrrolo[2,3-d]pyrimidin-2-ylamino)phenylsulfonamido)acetamide]",–,–
10 to 100,"NS(=O)(=O)c1cccc(Nc2nc(Nc3ccc(N4CCNCC4)cc3)nc3[nH]ccc23)c1 [Example 96B, 3-(2-(4-(piperazin-1-yl)phenylamino)-7H-pyrrolo[2,3-d]pyrimidin-4-ylamino)benzenesulfonamide]",–,–
100 to 1000,"NC(=O)CNc1nc(Nc2ccc3cn[nH]c3c2)nc2[nH]ccc12 [Example 83, 2-(2-(1H-indazol-6-ylamino)-7H-pyrrolo[2,3-d]pyrimidin-4-ylamino)acetamide]",–,–
100 to 1000,"CC(=O)N1CCN(c2ccc(Nc3nc(NCCOCCN)c4cc[nH]c4n3)cc2)CC1 [Example 93, 1-(4-(4-(4-(2-(2-aminoethoxy)amino)-7H-pyrrolo[2,3-d]pyrimidin-2-ylamino)phenyl)piperazin-1-yl)ethanone]",–,–
> 1000,"NC(=O)c1c[nH]c2nc(Nc3ccc4c(c3)CCC(=O)N4)nc(NC3CC3)c12 [Example 108, 4-(cyclopropylamino)-2-(2-oxo-1,2,3,4-tetrahydroquinolin-6-ylamino)-7H-pyrrolo[2,3-d]pyrimidine-5-carboxamide]",–,–
100 to 1000,"COCCNc1nc(Nc2ccc(N3CCN(C(C)=O)CC3)cc2)nc2[nH]ccc12 [Example 90, 1-(4-(4-(4-(2-methoxyethylamino)-7H-pyrrolo[2,3-d]pyrimidin-2-ylamino)phenyl)piperazin-1-yl)ethanone]",–,–
100 to 1000,"CCCCOC(=O)CN(C)S(=O)(=O)c1ccc(Nc2nc(NC3CCC3)c3cc[nH]c3n2)cc1 [Example 53, butyl 2-(4-(4-(cyclobutylamino)-7H-pyrrolo[2,3-d]pyrimidin-2-ylamino)-N-methylphenylsulfonamido)acetate]",–,–
100 to 1000,"NC(=O)CC1CCN(c2nc(Nc3ccc4c(c3)CCC(=O)N4)nc3[nH]ccc23)CC1 [Example 121, 2-(1-(2-(2-oxo-1,2,3,4-tetrahydroquinolin-6-ylamino)-7H-pyrrolo[2,3-d]pyrimidin-4-yl)piperidin-4-yl)acetamide]",–,–
1 to 10,"N#Cc1c[nH]c2nc(Nc3ccc(S(N)(=O)=O)cc3)nc(NC3CC3)c12 [Example 106, 4-(5-cyano-4-(cyclopropylamino)-7H-pyrrolo[2,3-d]pyrimidin-2-ylamino)benzenesulfonamide]",–,–
> 1000,"CN(C)CC1CCN(c2nc(Nc3ccc(C(N)=O)cc3)ncc2F)CC1 [Example 133, 4-(4-(4-((dimethylamino)methyl)piperidin-1-yl)-5-fluoropyrimidin-2-ylamino)benzamide]",–,–
> 1000,"c1cc2c(NCCCN3CCOCC3)nc(Nc3ccc4cn[nH]c4c3)nc2[nH]1 [Example 61, N2-(1H-indazol-6-yl)-N4-(3-morpholinopropyl)-7H-pyrrolo[2,3-d]pyrimidine-2,4-diamine]",–,–
> 1000,"O=S1(=O)CCC(Nc2nc(Nc3ccc(N4CCNCC4)cc3)nc3[nH]ccc23)C1 (stereo not shown) [Example 100B, N2-(4-(piperazin-1-yl)phenyl)-N4-(1,1-dioxy-tetrahydrothiophen-3-yl)-7H-pyrrolo[2,3-d]pyrimidine-2,4-diamine]",–,–
–,"CC(=O)N(C)c1ccc(Nc2ncc(F)c(N3CCC(CN)CC3)n2)cc1 [Example 29, N-(4-(4-(4-(aminomethyl)piperidin-1-yl)-5-fluoropyrimidin-2-ylamino)phenyl)-N-methylacetamide]",316,10 to 100
> 1000,"CC(C)(CN)CNc1nc(Nc2ccc3cn[nH]c3c2)nc2[nH]ccc12 [Example 60, N4-(3-amino-2,2-dimethylpropyl)-N2-(1H-indazol-6-yl)-7H-pyrrolo[2,3-d]pyrimidine-2,4-diamine]",–,–
10 to 100,"CNc1nc(Nc2ccc3cn[nH]c3c2)nc2[nH]cc(-c3cccnc3)c12 [Example 3, N2-(1H-indazol-6-yl)-N4-methyl-5-(pyridin-3-yl)-7H-pyrrolo[2,3-d]pyrimidine-2,4-diamine]",–,–

SMILES,"IC50 [2, 3] [nM]",IC50 [1] [nM],"IC50 ([2]; Table 4, read-out: syk IC50) [nM]"
"CC(=O)N1CCN(c2ccc(Nc3nc(N4CCC(CN)CC4)c4nc[nH]c4n3)cc2)CC1 [Example 15, 1-(4-(4-(6-(4-(aminomethyl)piperidin-1-yl)-9H-purin-2-ylamino)phenyl)piperazin-1-yl)ethanone]",10 to 100,50000,10 to 100
"CC(=O)N1CCN(c2ccc(Nc3nc(N4CCC(CN)CC4)c4c(C#N)c[nH]c4n3)cc2)CC1 [Example 14, 2-(4-(4-acetylpiperazin-1-yl)phenylamino)-4-(4-(aminomethyl)piperidin-1-yl)-7H-pyrrolo[2,3-d]pyrimidine-5-carbonitrile]",10 to 100,50000,10 to 100
